# In the supplement of paper PMC10307832:
# Assays:
# Test in all cases: relative viability (nuclei count vs DMSO), 5 days (fraction); higher = more cells survive
# CAP-232 + Bortezomib = compound: C[C@H]([C@@H](C(=O)N)NC(=O)[C@@H]1CSSC[C@@H](C(=O)N[C@H](C(=O)N[C@@H](C(=O)N[C@H](C(=O)N1)CCCCN)CC2=CNC3=CC=CC=C32)CC4=CC=C(C=C4)O)NC(=O)[C@@H](CC5=CC=CC=C5)N)O [CAP-232] + CC(C)C[C@H](NC(=O)[C@H](Cc1ccccc1)NC(=O)c1cnccn1)B(O)O [Bortezomib] (partner 0.002 µM)
# In short: (§1)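 Values are medians from duplicate plates. Each reflects relative viability, defined as the nuclei count of treated wells over that of vehicle wells. Lung cancer cell lines in 1536-well plates were pin-tool dosed one day after seeding with one drug alone or with a fixed anchor-drug dose plus five library-drug doses (not always all listed) in √10 steps, then fixed, stained and imaged at 4× after 5 days.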
# CAP-232 + Pictilisib = compound: C[C@H]([C@@H](C(=O)N)NC(=O)[C@@H]1CSSC[C@@H](C(=O)N[C@H](C(=O)N[C@@H](C(=O)N[C@H](C(=O)N1)CCCCN)CC2=CNC3=CC=CC=C32)CC4=CC=C(C=C4)O)NC(=O)[C@@H](CC5=CC=CC=C5)N)O [CAP-232] + CS(=O)(=O)N1CCN(Cc2cc3nc(-c4cccc5[nH]ncc45)nc(N4CCOCC4)c3s2)CC1 [Pictilisib] (partner 1 µM)
# In short: as §1
# CAP-232 + Crizotinib = compound: C[C@H]([C@@H](C(=O)N)NC(=O)[C@@H]1CSSC[C@@H](C(=O)N[C@H](C(=O)N[C@@H](C(=O)N[C@H](C(=O)N1)CCCCN)CC2=CNC3=CC=CC=C32)CC4=CC=C(C=C4)O)NC(=O)[C@@H](CC5=CC=CC=C5)N)O [CAP-232] + C[C@@H](Oc1cc(-c2cnn(C3CCNCC3)c2)cnc1N)c1c(Cl)ccc(F)c1Cl [Crizotinib] (partner 1 µM)
# In short: as §1
# CAP-232 + Linsitinib = compound: C[C@H]([C@@H](C(=O)N)NC(=O)[C@@H]1CSSC[C@@H](C(=O)N[C@H](C(=O)N[C@@H](C(=O)N[C@H](C(=O)N1)CCCCN)CC2=CNC3=CC=CC=C32)CC4=CC=C(C=C4)O)NC(=O)[C@@H](CC5=CC=CC=C5)N)O [CAP-232] + C[C@]1(O)C[C@@H](c2nc(-c3ccc4ccc(-c5ccccc5)nc4c3)c3c(N)nccn32)C1 [Linsitinib] (partner 1 µM)
# In short: as §1
# CAP-232 + Alpelisib = compound: C[C@H]([C@@H](C(=O)N)NC(=O)[C@@H]1CSSC[C@@H](C(=O)N[C@H](C(=O)N[C@@H](C(=O)N[C@H](C(=O)N1)CCCCN)CC2=CNC3=CC=CC=C32)CC4=CC=C(C=C4)O)NC(=O)[C@@H](CC5=CC=CC=C5)N)O [CAP-232] + Cc1nc(NC(=O)N2CCC[C@H]2C(N)=O)sc1-c1ccnc(C(C)(C)C(F)(F)F)c1 [Alpelisib] (partner 2 µM)
# In short: as §1
Cell Line,relative viability (CAP-232 + Bortezomib; first compound 0.4 µM),relative viability (CAP-232 + Bortezomib; first compound 1.265 µM),relative viability (CAP-232 + Bortezomib; first compound 4 µM),relative viability (CAP-232 + Bortezomib; first compound 12.65 µM),relative viability (CAP-232 + Pictilisib; first compound 0.4 µM),relative viability (CAP-232 + Pictilisib; first compound 1.265 µM),relative viability (CAP-232 + Pictilisib; first compound 4 µM),relative viability (CAP-232 + Pictilisib; first compound 12.65 µM),relative viability (CAP-232 + Crizotinib; first compound 0.4 µM),relative viability (CAP-232 + Crizotinib; first compound 1.265 µM),relative viability (CAP-232 + Crizotinib; first compound 4 µM),relative viability (CAP-232 + Crizotinib; first compound 12.65 µM),relative viability (CAP-232 + Linsitinib; first compound 0.4 µM),relative viability (CAP-232 + Linsitinib; first compound 1.265 µM),relative viability (CAP-232 + Linsitinib; first compound 4 µM),relative viability (CAP-232 + Linsitinib; first compound 12.65 µM),relative viability (CAP-232 + Alpelisib; first compound 0.4 µM),relative viability (CAP-232 + Alpelisib; first compound 1.265 µM),relative viability (CAP-232 + Alpelisib; first compound 4 µM),relative viability (CAP-232 + Alpelisib; first compound 12.65 µM)
LCLC-103H,1.33,0.927,1.16,1,0.707,0.564,0.536,0.595,1.1,0.984,0.98,1.06,1.13,1.08,1.13,0.946,0.948,0.921,0.972,0.898
LOU-NH91,0.528,0.458,0.463,0.549,0.479,0.512,0.501,0.438,0.748,0.76,0.921,0.705,0.923,1.06,0.865,0.719,0.738,0.771,0.699,0.58
LU99A,1.14,1.1,1.18,1.05,0.376,0.307,0.328,0.292,0.486,0.652,0.513,0.561,0.52,0.504,0.506,0.533,0.515,0.517,0.471,0.497
LXF-289,1.06,0.976,0.975,1,0.817,0.768,0.755,0.798,0.843,0.803,0.784,0.841,1.05,0.952,0.992,0.983,1.13,1.08,1.1,1.02
NCI-H23,1.15,1.03,1.06,0.953,0.405,0.491,0.504,0.462,0.532,0.444,0.462,0.362,0.5,0.624,0.587,0.543,0.848,0.743,0.714,0.668
NCI-H322M,1.53,1.2,1.14,1.28,0.54,0.556,0.519,0.487,1.01,0.903,0.841,0.778,1.14,0.916,0.941,0.959,0.778,0.753,0.709,0.755
NCI-H441,0.429,0.357,0.392,0.436,0.411,0.462,0.412,0.385,0.711,0.636,0.639,0.734,0.439,0.64,0.699,0.5,0.757,0.912,0.788,0.843
NCI-H460,1.49,1.17,1.22,0.812,0.328,0.306,0.433,0.349,0.924,1.1,1.05,0.534,0.89,0.865,0.986,0.44,0.512,0.541,0.595,0.211
NCI-H520,0.71,0.508,0.611,0.438,0.379,0.315,0.314,0.25,0.822,0.66,0.888,0.56,1.06,0.969,1.04,0.563,0.945,0.93,1.08,0.568
NCI-H596,1.14,1.2,0.701,0.925,0.421,0.388,0.36,0.328,1.15,0.988,0.89,1.05,1.05,1.05,1.14,1.06,0.558,0.512,0.497,0.507
NCI-H647,0.938,0.807,0.931,0.562,0.431,0.354,0.482,0.365,1.28,1.01,1.05,0.871,1.09,1.13,1.5,0.851,1.18,1.16,1.37,0.761
NCI-H650,0.999,0.754,0.792,0.769,0.84,0.821,1.06,0.564,0.7,0.767,0.795,0.494,1.12,0.808,0.872,0.846,0.997,1.3,0.997,0.825
NCI-H661,0.658,0.809,0.733,0.851,0.402,0.377,0.416,0.389,1,0.947,1.05,1.13,0.488,0.659,0.575,0.462,0.594,0.382,0.913,0.596
NCI-H727,–,0.754,1.11,0.601,–,0.346,0.361,0.28,–,0.757,1.04,0.82,–,0.346,0.316,0.245,–,0.59,0.633,0.59
